Here are results for 5 molecules from patent US9000027B2, “Chk1 suppresses a caspase-2 apoptotic response to DNA damage that bypasses p53, bcl-2 and caspase-3” (Dana-Farber Cancer Institute, Inc., priority 2008, dated 2015).

In one series the test system is p53^e7/e7 mutant embryos. The series is described as follows: Morpholino screen for suppressors of p53^e7/e7 radioresistance (live AO assay). As to conditions: p53^e7/e7, 12.5 Gy. The class given is in vivo, zebrafish. The procedure:
We used morpholino antisense oligonucleotides (MOs) to knock down the expression levels of 8 zebrafish S- and G2-checkpoint kinases in p53^e7/e7 mutant embryos and assessed the ability of each knockdown to restore cell death (AO reactivity) at 7.5 hours post-IR (hpIR). We also tested several double-knockdown combinations, as well as knockdowns of non-kinase checkpoint regulators (p21^waf1/cip1 and smc1). For each knockdown, we scored a minimum of 50 embryos and quantified AO staining in at least 5 embryos. To avoid the isolation of false-positives, we adjusted the concentrations of each MO to the maximal dose compatible with normal embryonic development in the p53^e7/e7 background.
Morpholino oligonucleotides (MOs) synthesized by Gene Tools™ LLC, were resuspended in sterile water at a concentration of 1 mM and delivered into zebrafish embryos at the one-cell stage by microinjection. […] For each previously unpublished MO, the working concentration was determined as the highest dose compatible with normal zebrafish development in the p53^e7/e7 background (maximal subtoxic concentration). […]
Live zebrafish embryos were dechorionated in pronase (2.0 mg/mL in egg water) for 3 to 5 min and rinsed five times in egg water at 18 hpf. […] Lateral images of each zebrafish were acquired on a Zeiss Axioplan2 fluorescence microscope (5× lens), using OpenLab software and a Hammamatsu C4742-95 digital camera. […]

The test system of a further series is zebrafish ATR. The series is described as follows: MO knockdown efficiency: western blot of ATR levels. As to conditions: atr MO 0.25 mM, 25.5 hpf lysates. The class given is in vivo. The text has this: (§1) (A) Western blot of 25.5 hpf zebrafish protein lysates from non-injected and atr MO-injected embryos using an anti-human ATR antibody recognizing an internal peptide that is highly conserved in zebrafish Atr. Detection of a high molecular weight zebrafish band showing the same migration pattern as human ATR (lane 1) strongly supports crossreactivity of the antibody with zebrafish ATR (the predicted molecular weight of zebrafish ATR, 300 kDa, matches that of human ATR). […] The MO concentration used in the MO screen (FIG. 1) and epistasis analyses (FIG. 5), 0.25 mM, leads to a >50% reduction in ATR levels compared to control (compare lanes 5 with 2 and 3). (B-E) Gel migration profiles of RT-PCR products from non-injected and MO-injected embryos using primers in exons flanking the targeted exon (Table 1). All bands were excised and sequenced. […] All RT-PCRs are semi-quantitative with β-actin amplicon serving as loading control. […] Either aberrant splice product results in the occurrence of an inappropriate early stop codon (as a result of in-frame reading of the intron or of a frameshift caused by exon skipping), which is predicted to result in an early truncation of the ATM protein before the PIKK kinase domain. […] As exemplified in lane 4, this same MO concentration could lead to stronger knockdowns, but in this case the embryos could not be scored in the assay. […]

Series [1] relates to p53^e7/e7;chk1^MO embryos. The series is described as follows: Epistasis analyses in irradiated p53^e7/e7;chk1^MO embryos (live AO assay). The class given is in vivo. The settings on record: 12.5 Gy. The procedure:
To identify such molecules, we performed in vivo epistasis analyses in zebrafish by knocking down or forcing the expression of candidate pathway contributors in p53^e7/e7;chk1^MO embryos.
Morpholino oligonucleotides (MOs) synthesized by Gene Tools™ LLC, were resuspended in sterile water at a concentration of 1 mM and delivered into zebrafish embryos at the one-cell stage by microinjection. The injection apparatus consisted of a heat-pulled, filamentous RNAse free capillary tube positioned by a micromanipulator (Narishige™ M-125), through which the MO was pressure-injected using a nitrogen air supply controlled by a microinjector (Harvard Apparatus™ PLI-100). MOs were delivered into the yolk of embryos at the one cell stage, just below the cytoplasm. For each previously unpublished MO, the working concentration was determined as the highest dose compatible with normal zebrafish development in the p53^e7/e7 background (maximal subtoxic concentration). […] 100 ng of bcl-xl mRNA in vitro transcribed from full-length zebrafish bcl-xl cDNA cloned into pCS2 were injected as described above. All embryos were grown at 28.5° C. in egg water (5 mM NaCl, 0.17 mM KCl, 0.4 mM CaCl2 and 0.16 mM MgSO4). Knockdown efficiencies for the chk1, chk2, atm, atr, p63, casp8 and casp9 MOs at their maximal subtoxic concentrations are shown in FIG. 10. The sequences of the PCR primers used for RT-PCR-based monitoring of MO efficiencies are available upon request.
Live zebrafish embryos were dechorionated in pronase (2.0 mg/mL in egg water) for 3 to 5 min and rinsed five times in egg water at 18 hpf. […] At 24 hpf, embryos were incubated in […] Acridine Orange (AO; Sigma A-6014) in egg water for 30 min at 28.5° C., followed by 3 quick rinses and three 10-min washes in egg water. 5-10 AO-treated embryos were anesthetized in Tricaine ([…]; 3-amino benzoic acid ethylester from Sigma, A-5040) and mounted laterally on a glass slide in warm 0.5% agarose in egg water by streaking a thin layer of the warm agarose across the surface of the slide, and gently pulling the embryos across the agar with a transfer pipette. Lateral images of each zebrafish were acquired on a Zeiss Axioplan2 fluorescence microscope (5× lens), using OpenLab software and a Hammamatsu C4742-95 digital camera. All images were then converted to 8-bit grayscale in NIH ImageJ using the Image>Type>8-bit command. Next, we cropped the images using the Polyonal Selection tool and the Image>Crop functions to include only the trunk of the animal from the head until the beginning of the yolk tube (MO screen; FIG. 1B) or along the entire spinal cord (epistasis analyses; FIGS. 6A & 6D). The area outside of the selected region of interest was cleared using the Edit>Clear Outside command to create a distinct boundary around the area of interest (this is important as it allows the area of interest to be precisely selected after applying the threshold). Next, we split the acquired images into features of interest and background using the Image>Adjust>Threshold function in NIH ImageJ. We then set the maximum threshold of each image to 255 (the lower slide bar in the Threshold window), and adjusted the minimum threshold to the optimized threshold (see below). The threshold was applied using the Black & White display option, with the following Lut options applied; Thresholded pixels to foreground color; Remaining pixels to background color and Black foreground, white background. […] Next, we re-selected the region of interest on the thresholded image, following the bounded image carefully, and analyzed the pixels of the image using the Analyze>Analyze Particles function. The Minimum Size was set to 1px, the Maximum Size was set to the maximum value of 999999 and the Masks option was selected under the Show pull-down menu. The following extended options were also selected: Display Results; Clear Results; Summarize, Size Distribution and Record Starts. […]

In series [2] the target is T1, MK-2 (Homo sapiens, UniProt P49137). As to the kind of experiment: Western blot of MK-2 activity (Hsp-27 Ser82 phosphorylation) in irradiated HeLa cells. The settings on record: irradiated HeLa cells, increasing concentrations of SB203580. More on the design: endogenous in cells; host or cells: HeLa. The class given is cell-based. The procedure: Protein extract (5-60 μg) was added to 4× gel loading buffer and 10× denaturing solution (Invitrogen) in appropriate proportions, and samples were incubated at 70° C. for 10 min. Samples were run at 200V for 1 hr on a 4-12% Bis-tris gradient gel (Invitrogen). After electrophoresis, samples were transferred for 1.5 hr (350 mA) to a Nitrocellulose membrane (Millipore) using a submerged transfer apparatus (Bio-Rad). Membranes were then blocked with 5% milk in Tris-buffered saline with 0.1% tween (TBST) and probed overnight at 4° C. with the following antibodies: anti-zebrafish Chk1 (diluted 1:200), anti-zebrafish Chk2 (1:200), anti-P-Cdc2 (1:1000), anti-actin (1:2000), anti-human ATR (1:500) and Stressgen anti-human-caspase-3 (1:500) for zebrafish immunoblots; and anti-caspase-2 (1:200), Upstate anti-caspase-3 (1:500), anti-P-ATM (1:500), anti-ATM (1:500), Santa Cruz anti-human Chk1 (1:1000), Santa Cruz anti-human Chk2 (1:1000), anti-P-Chk1 (1:500), anti-P-Chk2 (1:500), anti-P-H2A.X (1:2000), anti-P-cdc25C (1:1000), anti-P-HSP27 (1:1000), anti-HSP27 (1:1000), anti-P-Cdc2 (1:1000), anti-p53 (1:1000) and anti-GAPDH (1:5000) for immunoblots of human tumor cell lysates. Detailed references for all primary antibodies can be found in the ‘Antibodies’ section elsewhere herein.
Target sequence in this assay (P49137 whole entry): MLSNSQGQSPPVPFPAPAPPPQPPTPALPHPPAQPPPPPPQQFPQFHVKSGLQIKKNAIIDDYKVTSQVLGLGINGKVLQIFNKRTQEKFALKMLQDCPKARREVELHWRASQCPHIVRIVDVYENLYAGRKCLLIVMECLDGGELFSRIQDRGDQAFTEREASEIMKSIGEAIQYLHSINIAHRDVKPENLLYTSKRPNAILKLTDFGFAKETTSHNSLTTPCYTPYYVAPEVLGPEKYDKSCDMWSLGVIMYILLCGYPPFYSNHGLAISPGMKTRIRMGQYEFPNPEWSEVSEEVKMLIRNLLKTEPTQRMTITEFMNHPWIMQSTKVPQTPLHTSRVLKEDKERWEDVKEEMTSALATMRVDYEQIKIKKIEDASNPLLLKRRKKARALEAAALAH

Series [3] addresses T1, MK-2. As to conditions: concentration initially thought to specifically inhibit Chk1; cited from earlier work.
Target sequence in this assay (P49137 whole entry, species assumed): as the sequence (P49137 whole entry) above
The target in a further series is T2, Chk1 (Homo sapiens, UniProt O14757).
T2 sequence (O14757 1-476): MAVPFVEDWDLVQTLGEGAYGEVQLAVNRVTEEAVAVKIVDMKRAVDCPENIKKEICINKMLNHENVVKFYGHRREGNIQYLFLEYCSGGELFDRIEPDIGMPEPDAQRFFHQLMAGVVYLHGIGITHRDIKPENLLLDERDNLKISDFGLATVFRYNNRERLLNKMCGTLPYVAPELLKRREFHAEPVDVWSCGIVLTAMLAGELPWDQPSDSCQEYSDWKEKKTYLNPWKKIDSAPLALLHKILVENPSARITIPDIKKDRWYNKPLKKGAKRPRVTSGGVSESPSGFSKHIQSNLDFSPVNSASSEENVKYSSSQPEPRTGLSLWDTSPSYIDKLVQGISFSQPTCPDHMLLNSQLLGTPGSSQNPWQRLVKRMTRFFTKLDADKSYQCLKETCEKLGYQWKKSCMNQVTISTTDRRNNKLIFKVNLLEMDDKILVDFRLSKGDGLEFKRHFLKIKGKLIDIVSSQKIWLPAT
As to conditions: concentration initially thought to specifically inhibit Chk1; cited from earlier work.

The test system of another series is casp9. The series is described as follows: MO knockdown efficiency: RT-PCR of casp9 transcripts. As to conditions: maximal subtoxic MO concentration. The class given is in vivo, zebrafish.
Source text: as §1

As to “chk1 mismatch MO: 5 base-pair mismatch version of chk1 MO, agCcaGagcGattatCcaatGttcg (SEQ ID NO: 12) (AGCCAGAGCGATTATCCAATGTTCG; all phosphorodiamidate morpholino (PMO))”, the “radiosensitization of p53 mutants” value with p53^e7/e7 mutant embryos was “failed to radiosensitize p53 mutants”.
Turning to “atr MO: morpholino against zebrafish atr atg/5'UTR (SEQ ID NO: 15) (TGACATTTCTAGTCCTTGCTCCATC; antisense; all phosphorodiamidate morpholino (PMO))”, the “reduction in ATR levels compared to control” value in the series on zebrafish ATR is reported as over 50%. In addition, the “reduction of the mean p53^e7/e7;chk1^MO AO response” value in series [1] was about 90%.
Turning to `C[S+]([O-])c1ccc(-c2nc(-c3ccncc3)c(-c3ccc(F)cc3)[nH]2)cc1` (centres unmarked) [SB203580], the “phosphorylated Hsp-27 at Ser82 versus native Hsp-27” value at MK-2 [2] was “reduction in the abundance of phosphorylated Hsp-27 at Ser82”.
Regarding `CN[C@@H]1C[C@H]2O[C@@](C)([C@@H]1OC)n1c3ccccc3c3c4c(c5c6ccccc6n2c5c31)C(=O)N[C@H]4O` [UCN-01, 7-hydroxystaurosporine], on MK-2 [3], the MK-2 inhibition entry was “inhibits both Chk1 and MK-2”. The Chk1 inhibition result at Chk1 was “inhibits both Chk1 and MK-2”.
With “casp9 MO: morpholino against zebrafish casp9 splice donor site (SEQ ID NO: 26) (GATGGAAAAACACACTTACGGACTG; antisense; all phosphorodiamidate morpholino (PMO))”, the “effect on IR-induced cell death (AO labeling) of p53^e7/e7;chk1^MO embryos” value in series [1] is “complete absence of effects”. This molecule also had a casp9 knockdown with casp9 of about 50%.
